How the values were obtained:
[1] = target: PARP1 enzyme (Homo sapiens (Human), UniProt P09874); test: PARP Mass Spectroscopy Assay (PARP1 enzymatic assay, nicotinamide detection); assay type: biochemical; settings: 5 nM PARP1, 5 uM β-NAD, 60 min at RT, NAM by mass spectrometry
Description: Materials and Reagents: The PARP1 enzyme was purchased from BPS Bioscience (cat #80501). Tris-HCl, pH 8.0 was purchased from Corning (cat #46-031-CM). Magnesium chloride was purchased from Thermo Fisher Scientific (previously Honeywell Fluka, cat #63020-1L). All other assay components, activated DNA (cat #D4522), core histones (cat #SRP6590), β-Nicotinamide adenine dinucleotide (β-NAD—cat #N8285), 3ABA PARP1 small molecule inhibitor (from the PARP1 Enzyme Activity Assay kit, cat #17-10149), Sodium Chloride (NaCl, cat #56546-1L), Triton X-100 (cat #93443), Dithiothreitol (DTT, cat #43816-250 ML) were all purchased from Millipore Sigma.
Assay Buffer: The assay buffer includes the following reagents: 50 mM Tris-HCl pH 8.0, 50 mM NaCl, 10 mM, MgCl2, 0.01% Triton X-100, and 1 mM DTT.
PARP1 enzymatic assays were performed in 384-well plates in a total volume of 20 μL in the assay buffer. For concentration response curves, compounds were serially diluted 3-fold from 2 mM highest concentration […] to generate a 10-point curve, and 125 nL was transferred to the assay plate using the Echo acoustic dispenser for a final concentration range of 26.6 μM to […] in 10 μL reaction. Five microliters of 10 nM PARP1 enzyme and 100 nM core histones (2×) mix were added to the assay plates and pre-incubated for 30 mins at room temperature (RT). The reaction was initiated by the addition of a 5 μL of 10 uM β-NAD plus 0.02 mg/mL activated DNA (2×) mix. The reaction is incubated for 60 min at RT. The final concentration of the PARP1 enzyme and substrate concentrations were 5 nM and 5 uM, respectively. The positive control (high signal) and negative control (low signal) wells had 125 nL of DMSO in place of compounds. After the incubation is complete, the reaction is stopped by the addition of 10 μL of 10 uM of the 3ABA PARP1 inhibitor, incubated for 5 min at RT, and placed in the −80 C freezer for shipment to the Valo Health site in Branford Connecticut where mass spectrometry will be used to directly detect quantities of nicotinamide (NAM).
The percent inhibition of enzyme activity was calculated according to the following equation: […]
The values of Ssample, Shigh, and Slow in the equation refer to the NAM concentration detected in the assay wells, high control wells, and low control wells, respectively. To determine inhibitor IC50 values, % inhibition of the CRCs (concentration response curves) was fitted to the standard single-site four-parameter logistic equation.

[2] = target: human MDR1 (P-glycoprotein; P-gp) (Homo sapiens (Human), UniProt P08183); test: bi-directional MDCK-MDR1 permeability assay; assay type: in vitro ADME; settings: for MDCK-MDR1 Papp A→B (10^−6 cm/s) / Papp A→B: apical to basolateral direction; for MDCK-MDR1 ER / efflux ratio: efflux ratio B→A/A→B; for Papp A→B: dog; for Papp A→B / efflux ratio: MDCK-MDR1; for efflux ratio: human, read-out: MDCK-MDR1 ER
Description: The bi-directional assay containing a Mandin Darby canine kidney (MDCK) cell line transfected with human MDR1 gene (P-glycoprotein; P-gp) designed to overexpress the MDR1 efflux transporter, a major efflux transporter at the blood brain barrier (BBB), uses an established method that measures the rate of flux of a compound across polarized cell monolayers. As well appreciated in the art, the data generated from the MDCK-MDR1 permeability assay may be used to predict in vivo absorption of drugs. The bi-directional MDCK-MDR1 permeability assay can identify and quantify levels of active efflux. Screening compounds in both the apical to basolateral direction (A→B) and basolateral to apical direction (B→A) across the cell monolayer provides a ratio of B→A/A→B (efflux ratio; “ER”). Unlike the Caco-2 assay, the MDCK-MDR1 assay is not subject to potential efflux interference by breast cancer resistance protein (BCRP). […] The data may further be used to predict blood brain barrier (BBB) permeability via calculation from the data of log(permeability-surface area product) (“log PS”), well-understood to be predictive of the in vivo log([brain concentration]/[plasma concentration]).

Sequence of PARP1 enzyme (P09874 whole entry): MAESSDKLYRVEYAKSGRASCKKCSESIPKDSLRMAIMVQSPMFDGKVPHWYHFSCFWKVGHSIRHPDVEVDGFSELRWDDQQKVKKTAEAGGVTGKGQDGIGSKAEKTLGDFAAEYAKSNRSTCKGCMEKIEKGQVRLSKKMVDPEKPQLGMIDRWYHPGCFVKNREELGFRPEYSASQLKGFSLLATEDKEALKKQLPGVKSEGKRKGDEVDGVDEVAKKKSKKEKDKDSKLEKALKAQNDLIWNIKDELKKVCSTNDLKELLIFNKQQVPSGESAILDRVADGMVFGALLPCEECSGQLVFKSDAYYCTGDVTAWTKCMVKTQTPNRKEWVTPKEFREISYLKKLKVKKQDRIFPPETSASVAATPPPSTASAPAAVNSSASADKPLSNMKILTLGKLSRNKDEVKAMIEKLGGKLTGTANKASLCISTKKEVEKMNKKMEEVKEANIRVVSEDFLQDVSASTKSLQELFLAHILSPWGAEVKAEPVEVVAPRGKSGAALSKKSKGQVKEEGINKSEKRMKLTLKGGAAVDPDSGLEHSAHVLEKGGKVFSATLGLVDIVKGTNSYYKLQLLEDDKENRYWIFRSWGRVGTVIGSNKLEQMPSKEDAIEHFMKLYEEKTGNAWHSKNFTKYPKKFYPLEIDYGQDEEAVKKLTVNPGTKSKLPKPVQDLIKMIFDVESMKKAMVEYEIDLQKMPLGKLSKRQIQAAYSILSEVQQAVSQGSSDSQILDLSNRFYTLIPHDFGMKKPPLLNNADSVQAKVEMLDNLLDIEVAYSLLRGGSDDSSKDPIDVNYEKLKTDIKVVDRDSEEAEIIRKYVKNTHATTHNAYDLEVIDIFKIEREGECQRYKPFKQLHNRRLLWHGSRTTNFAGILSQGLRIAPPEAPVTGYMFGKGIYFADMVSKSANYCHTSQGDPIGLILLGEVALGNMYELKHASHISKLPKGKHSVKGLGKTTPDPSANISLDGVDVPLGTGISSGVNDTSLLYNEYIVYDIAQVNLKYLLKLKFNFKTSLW
Sequence of human MDR1 (P-glycoprotein; P-gp) (P08183 whole entry): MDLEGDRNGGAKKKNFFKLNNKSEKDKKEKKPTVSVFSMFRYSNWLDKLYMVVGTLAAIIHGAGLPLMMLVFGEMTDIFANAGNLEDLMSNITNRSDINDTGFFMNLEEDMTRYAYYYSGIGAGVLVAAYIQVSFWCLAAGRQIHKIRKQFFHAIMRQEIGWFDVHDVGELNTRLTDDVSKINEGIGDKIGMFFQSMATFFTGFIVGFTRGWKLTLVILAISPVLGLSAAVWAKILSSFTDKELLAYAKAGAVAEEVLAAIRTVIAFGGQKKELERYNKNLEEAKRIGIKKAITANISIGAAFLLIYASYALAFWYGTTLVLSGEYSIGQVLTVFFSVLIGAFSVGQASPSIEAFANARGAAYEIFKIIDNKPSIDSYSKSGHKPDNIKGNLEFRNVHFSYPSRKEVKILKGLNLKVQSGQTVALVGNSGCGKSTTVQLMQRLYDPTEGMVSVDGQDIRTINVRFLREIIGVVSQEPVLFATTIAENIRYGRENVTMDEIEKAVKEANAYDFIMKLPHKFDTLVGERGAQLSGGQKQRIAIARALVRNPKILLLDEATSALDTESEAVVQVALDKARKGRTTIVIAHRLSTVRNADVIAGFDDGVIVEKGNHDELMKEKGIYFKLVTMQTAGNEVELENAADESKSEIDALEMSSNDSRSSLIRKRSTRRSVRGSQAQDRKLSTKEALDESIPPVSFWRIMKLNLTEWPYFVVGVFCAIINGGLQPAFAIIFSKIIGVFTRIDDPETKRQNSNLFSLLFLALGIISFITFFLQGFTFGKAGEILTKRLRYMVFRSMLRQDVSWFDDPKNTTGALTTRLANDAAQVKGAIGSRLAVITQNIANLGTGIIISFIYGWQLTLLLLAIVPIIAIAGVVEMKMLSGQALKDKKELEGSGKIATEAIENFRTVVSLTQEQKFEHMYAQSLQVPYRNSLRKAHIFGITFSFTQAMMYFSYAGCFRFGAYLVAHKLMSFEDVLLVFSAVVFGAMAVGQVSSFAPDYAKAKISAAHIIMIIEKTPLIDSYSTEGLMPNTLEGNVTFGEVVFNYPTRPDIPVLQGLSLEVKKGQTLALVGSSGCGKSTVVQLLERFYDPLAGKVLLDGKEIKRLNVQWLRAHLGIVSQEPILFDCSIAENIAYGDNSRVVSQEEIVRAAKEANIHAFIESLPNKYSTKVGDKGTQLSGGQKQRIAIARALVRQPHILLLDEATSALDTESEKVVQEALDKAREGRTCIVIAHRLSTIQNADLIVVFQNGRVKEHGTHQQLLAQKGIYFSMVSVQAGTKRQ

IC50 [1] [nM]	MDCK-MDR1 Papp A→B (10^−6 cm/s) [2]	MDCK-MDR1 ER [2]	Papp A→B [2] [×10⁻⁶ cm/s]	efflux ratio [2]	SMILES
142	2.27 10^−6 cm/s	9.91			O=c1[nH]nc2c3c(cc(F)cc13)N[C@H](C1CCOCC1)[C@H]2c1ccccc1Cl [Compound 0210B, (11R,12R)-12-(2-chlorophenyl)-7-fluoro-11-(oxan-4-yl)-2,3,10-triazatricyclo[7.3.1.0^{5,13}]trideca-1,5(13),6,8-tetraen-4-one]
38	0.506 10^−6 cm/s	17.9			C[C@@H]1Nc2cc(F)cc3c(=O)[nH]nc(c23)[C@@H]1[C@H]1CCCCN1C [Compound 0199C]
	0.568 10^−6 cm/s	21.7			Cn1ncnc1[C@@H]1c2n[nH]c(=O)c3cc(F)cc(c23)N[C@H]1C1CC1 [Compound 0203B]
47			13.3	0.612	O=c1[nH]nc2c3c(cc(F)cc13)NC[C@@H]2c1ccccc1Cl [Compound 0120B, (S)-9-(2-chlorophenyl)-5-fluoro-2,7,8,9-tetrahydro-3H-pyrido[4,3,2-de]phthalazin-3-one]
36			14	0.532	C[C@H]1Nc2cc(F)cc3c(=O)[nH]nc(c23)[C@@H]1c1ccc(F)cc1F [Compound 0174A, (8R,9R)-9-(2,4-difluorophenyl)-5-fluoro-8-methyl-2,7,8,9-tetrahydro-3H-pyrido[4,3,2-de]phthalazin-3-one]
43	3.66 10^−6 cm/s	5.77			O=c1[nH]nc2c3c(cc(F)cc13)N[C@@H]([C@@H]1CCOC1)[C@@H]2c1ccccc1Cl [Compound 0121D]
130	4.93 10^−6 cm/s	3.33			O=c1[nH]nc2c3c(cc(F)cc13)N[C@@H](C1CCC(F)(F)CC1)[C@@H]2c1ccccc1Cl [Compound 0213B]
9	13.4 10^−6 cm/s	0.695			CC[C@@H]1Nc2cc(F)cc3c(=O)[nH]nc(c23)[C@H]1c1ccccc1Cl [Compound 0206A, (11S,12S)-12-(2-chlorophenyl)-11-ethyl-7-fluoro-2,3,10-triazatricyclo[7.3.1.0^{5,13}]trideca-1,5(13),6,8-tetraen-4-one]
28			11.7	0.541	O=c1[nH]nc2c3c(cc(F)cc13)NC[C@H]2c1ccc(Cl)c(F)c1 [Compound 0188A, (R)-9-(4-chloro-3-fluorophenyl)-5-fluoro-2,7,8,9-tetrahydro-3H-pyrido[4,3,2-de]phthalazin-3-one]
	0.335 10^−6 cm/s	3.98			CC(=O)N1CCC([C@@H]2Nc3cc(F)cc4c(=O)[nH]nc(c34)[C@H]2c2ncnn2C)CC1 [Compound 0218B]
123			0.471	30.8	CN1CCC([C@@H]2Nc3cc(F)cc4c(=O)[nH]nc(c34)[C@H]2c2ccccc2Cl)CC1 [Compound 0116B, (8S,9S)-9-(2-chlorophenyl)-5-fluoro-8-(1-methylpiperidin-4-yl)-2,7,8,9-tetrahydro-3H-pyrido[4,3,2-de]phthalazin-3-one]
	0.373 10^−6 cm/s	33.3			Cn1ncnc1[C@H]1c2n[nH]c(=O)c3cc(F)cc(c23)N[C@@H]1C1CCC(F)(F)CC1 [Compound 0215A]
18	9.59 10^−6 cm/s	0.92			CC(C)[C@H]1Nc2cc(F)cc3c(=O)[nH]nc(c23)[C@H]1c1ccccc1Cl [Compound 0222B]
	1.2 10^−6 cm/s	12.3			Cn1ncnc1[C@H]1CNc2cc(F)cc3c(=O)[nH]nc1c23 [Compound 0200B]
	0.77 10^−6 cm/s	28.5			CC[C@@H]1Nc2cc(F)cc3c(=O)[nH]nc(c23)[C@H]1c1ncnn1C [Compound 0202B]
	5.76 10^−6 cm/s	3.37			O=c1[nH]nc2c3c(cc(F)cc13)N[C@@H](C1CCN(C3CCC(F)(F)CC3)CC1)[C@@H]2c1ccc(Cl)cc1F [Compound 0256A]
4					O=c1[nH]nc2c3c(cc(F)cc13)NC(C1(F)CC1)C2c1ccc(Cl)cc1F (stereo not shown) [Compound 0255-6]
4					O=c1[nH]nc2c3c(cc(F)cc13)NC(C1CCN(C3CCC(F)(F)CC3)CC1)C2c1ccc(F)cc1F (stereo not shown) [Compound 0271-6]
30					N#Cc1ccc([C@H]2c3n[nH]c(=O)c4cc(F)cc(c34)N[C@@H]2C2CCN(C3CCC(F)(F)CC3)CC2)c(F)c1 [Compound 0276B]
896					O=c1[nH]nc2c3c(cc(F)cc13)N[C@H](C1CCN(C3CCC(F)(F)CC3)CC1)[C@H]2c1ccccc1Cl [Compound 0261A]
2					CC(C)[C@H]1Nc2cc(F)cc3c(=O)[nH]nc(c23)[C@@H]1c1c(F)cc(F)cc1F [Compound 0221A]
57					O=c1[nH]nc2c3c(cc(F)cc13)N[C@@H](CF)[C@@H]2c1ccc(Cl)cc1F [Compound 0252A]
42					C[C@H]1Nc2cc(F)cc3c(=O)[nH]nc(c23)[C@@H]1[C@@H]1CCCN(C)C1 [Compound 0198D]
	0.567 10^−6 cm/s	24.7			C[C@@H]1Nc2cc(F)cc3c(=O)[nH]nc(c23)[C@H]1c1ncnn1C [Compound 0201B]
13					N#Cc1ccc(C2c3n[nH]c(=O)c4cc(F)cc(c34)NC2c2c(F)cc(F)cc2F)cc1F (stereo not shown) [0092A; 0092B, 2-fluoro-4-(5-fluoro-3-oxo-8-(2,4,6-trifluorophenyl)-2,7,8,9-tetrahydro-3H-pyrido[4,3,2-de]phthalazin-9-yl)benzonitrile]
8					O=c1[nH]nc2c3c(cc(F)cc13)N[C@H](CF)[C@H]2c1ccc(Cl)cc1F [Compound 0252B]
103					O=c1[nH]nc2c3c(cc(F)cc13)NC(C1(F)CC1)[C@H]2c1ccc(Cl)cc1F (stereo partly shown) [Compound 0255B]
37					CN1CCC[C@H]([C@H]2CNc3cc(F)cc4c(=O)[nH]nc2c34)C1 [Compound 0191B]

SMILES	IC50 [1] [nM]	MDCK-MDR1 Papp A→B (10^−6 cm/s) [2]	MDCK-MDR1 ER [2]	Papp A→B [2] [×10⁻⁶ cm/s]	efflux ratio [2]
C[C@H]1Nc2cc(F)cc3c(=O)[nH]nc(c23)[C@@H]1c1ccc(C#N)c(F)c1 [Compound 0193A]	24	5.83 10^−6 cm/s	2.63		
O=c1[nH]nc2c3c(cc(F)cc13)NC[C@@H]2c1ccc(Cl)cc1F [Compound 0189B]	29	15.6 10^−6 cm/s	0.538		
O=c1[nH]nc2c3c(cc(F)cc13)N[C@@H]([C@H]1CCOC1)[C@@H]2c1ccc(F)cc1F [Compound 0115C]	252	4.82 10^−6 cm/s	4.67		
O=c1[nH]nc2c3c(cc(F)cc13)N[C@@H]([C@@H]1CCOC1)[C@@H]2c1ccc(F)cc1F [Compound 0115D]		4.94 10^−6 cm/s	4.28		
N#Cc1ccc([C@@H]2CNc3cc(F)cc4c(=O)[nH]nc2c34)cc1F [Compound 0186A]	243				
O=c1[nH]nc2c3c(cc(F)cc13)NC(C1CCOC1)C2c1ccccc1Cl (stereo not shown) [Compound 0121-4]	39				
N#Cc1ccc([C@@H]2CNc3cc(F)cc4c(=O)[nH]nc2c34)c(F)c1 [Compound 0187A]	9				
C[C@@H]1Nc2cc(F)cc3c(=O)[nH]nc(c23)[C@H]1c1ccc(C#N)cc1F [Compound 0194B]	35				

Source: patent US20250346599A1, “TRICYCLIC PHTHALAZINONE PARP INHIBITORS AND METHODS OF USE” (Valo Health, Inc., priority 2022, published 2025)
